Measurements as given in patent publication US9814734B2, “Bufalin liposome, preparation method therefor and application thereof” (THE FOURTH MILITARY MEDICAL UNIVERSITY, priority 2012, dated 2017).
Marks after values point to notes of the source that are not given here.

Legend:
[1] = tested on: mice bearing L1210 leukemia; test: Therapeutic effect on mice bearing L1210 leukemia; format: in vivo, mouse; settings: ICR mice, i.p. daily, 1 mg/kg bufalin or 1 ml/kg Huachasu
Description: Mouse L1210 leukemia cells are subcultured intraperitoneally in ICR mouse. The bufalin liposome is prepared according to the method of Example 1. Male ICR mice (weight of 20±2 g, 5 mice in each cage) are fed in an animal room under alternative 12-hour illumination and 12-hour darkness at a constant temperature of 25° C. and allowed free access to standard laboratory diet. The mice are inoculated intraperitoneally with 1×10^5 L1210 leukemia cell suspension under sterile condition, and randomly divided into 4 groups (10 mice for each group). After 24 h, each group is intraperitoneally injected with 0.9% normal saline (control group), bufalin or bufalin liposome at the same dosage (obtained by Example 1, 1 mg/kg, the dosage is the amount of bufalin in liposome, and the actual dosage of liposome is calculated from encapsulation efficiency) and Huachasu injection (1 ml/kg, the dosage is obtained by converting clinically commonly used dosage into mouse administration dosage) respectively every day. The survival situations of mice within 35 days are observed and recorded, and the life extension rate is calculated. Life extension rate (%)=(average survival time of administration group/average survival time of control group-1)×100. Data are expressed as X±SEM. Statistical significance (P<0.05) for each variable was estimated by Student's t-test or ANOVA analysis.

[2] = tested on: HepG2 tumour bearing mice; test: In vivo therapeutic effect on liver cancer, HepG2 tumour bearing nude mice; design: species or system mouse; settings: i.p. daily, 1 mg/kg bufalin or 1 ml/kg Huachasu
Description: Human hepatocellular carcinoma cells, HepG2, are cultured in DMEM medium supplemented with 10% FBS, 100 U/ml penicillin G, and 100 μg/ml streptomycin in a humidified 5% CO2 atmosphere at 37° C. Male BALB/c nude mice (6-week-aged) are fed in pathogen-free conditions. The bufalin liposome is prepared according to the method of Example 1. Exponentially growing HepG2 cells are collected, and prepared into cell suspension with PBS. 0.2 ml of the cell suspension (2×10^7 cells) is injected subcutaneously into the right back of each mouse. When the tumor grows to 100 mm^3 (about one week), the mice are randomly divided into 4 groups (8 mice for each group), and intraperitoneally injected with 0.9% normal saline (control group), bufalin or bufalin liposome at the same dosage (Example 1, 1 mg/kg, the dosage is the amount of bufalin in liposome, and the actual dosage of liposome is calculated from encapsulation efficiency) and Huachasu injection (1 ml/kg, the dosage is obtained by converting clinically commonly used dosage into mouse administration dosage) respectively every day. […] The tumor volume is calculated according to the formula: V(mm^3)=(maximal diameter×minimal diameter^2)/2. After 14 days, the mice are sacrificed in anesthesia with overdose of pentobarbital sodium, followed by completely stripping the tumor body and weighing, and calculating the tumor inhibition rate by: tumor inhibition rate (%)=(average tumor weight of control group-average tumor weight of administration group)/average tumor weight of control group×100. Data are expressed as X±SEM, and statistically processed via t-test or variance analysis.

## C[C@]12CC[C@H](O)C[C@H]1CC[C@@H]1[C@@H]2CC[C@]2(C)[C@@H](c3ccc(=O)oc3)CC[C@]12O [bufalin, 3β,14-dihydroxy-5β, 20(22)-bufadienolide]
[1]; observed 35 days, 1 mg/kg
  Average survival time: 22.8 ± 3.1 days
[1]; versus control group
  Life extension rate (%): 36.5%
[2]; after 14 days, versus control group
  tumor inhibition rate: 21.8%
[2]; treatment day 0 (prior to administration)
  Tumor volume (mm^3): 410.5 ± 75.3 mm^3
[2]; treatment day 2
  Tumor volume (mm^3): 1055.8 ± 203.0 mm^3
[2]; treatment day 4
  Tumor volume (mm^3): 1621.0 ± 303.8 mm^3
[2]; treatment day 6
  Tumor volume (mm^3): 2215.9 ± 338.1* mm^3
[2]; treatment day 8
  Tumor volume (mm^3): 2115.7 ± 349.7* mm^3
[2]; treatment day 10
  Tumor volume (mm^3): 2565.4 ± 385.2* mm^3
[2]; treatment day 12
  Tumor volume (mm^3): 2691.9 ± 407.1* mm^3
[2]; treatment day 14, 1 mg/kg
  Tumor volume (mm^3): 3205.6±711.5 mm^3
[2]; treatment day 14, listed as Bufalin, 1 mg/kg
  Tumor volume (mm^3): 3205.6 ± 711.5* mm^3
